Assay results from patent US11834424B2, “Compounds useful as chaperone-mediated autophagy modulators” (ALBERT EINSTEIN COLLEGE OF MEDICINE, priority 2018, dated 2023).
Read-outs that look alike come from different tables or passages of the source.

Assay: Pharmacokinetics (plasma and brain levels) in ICR (CD-1) mice
Type: in vivo
Details: male, mouse; for AUC(0-inf): read-out: AUCINF_obs; for MRT inf: read-out: MRTINF_obs
Method: ICR (CD-1) male mice were fasted at least three horns and water was available ad libitum before the study. Animals were housed in a controlled environment, target conditions: temperature 18 to 29° C., relative humidity 30 to 70%. Temperature and relative humidity was monitored daily. An electronic time controlled lighting system was used to provide a 12 h light/12 h dark cycle. 3 mice for each indicated time point. ICR (CD-1) mice were administered CA77 at 1 mg/kg i.v. and 30 mg/kg p.o. or CA77.1 at 1 mg/kg i.v. (FIG. 2A) and 10 mg/kg p.o. (FIG. 2B). Three (3) mice were included in each dosage and time group. Mice were sacrificed and plasma and brains were obtained at 0.083, 0.25, 0.50, 1.0, 2.0, 4.0, 8.0, and 24.0 hours after administration and drug concentration determined using LC-MS/MS. Brains were removed, homogenized with a tissue homogenizer in cold 5% w/v BSA in phosphate buffer saline (PBS). A 100 microliter aliquots of brain samples were dispensed in to glass culture tubes and mixed with ethyl acetate (800 μl), vortexed, and centrifuged. The organic layer was transferred to a fresh culture tube, dried under nitrogen, and reconstituted in mobile phase for quantitation. Pharmacokinetic parameters were determined by standard methods using Phoenix WinNonlin 6.3 software.
Tables 3A and 3B provide the concentrations of CA77 in ICR (CD-1) mouse plasma (3A) and mouse brain (3B) following i.v. administration of 1 mg/kg CA77. Table 3C provides the brain/plasma ratio of CA77 following i.v. administration of 1 mg/kg CA77. Shaded cells indicate data not included in statistics due to aberrant value. BLQ=Below Limit of Quantitation.
Tables 5A and 5B provide the concentrations of CA77.1 in ICR (CD-1) mouse plasma (5A) and mouse brain (5B) following i.v. administration of 1 mg/kg CA77.1. Table 5C provides the brain/plasma ratio of CA77.1 following i.v. administration of 1 mg/kg CA77.1. The plasma and brain pharmacokinetic parameters for CA77.1 are provided in Table 6. *—cells contain data not present in the statistics.

[1] = ICR (CD-1), brain/plasma, iv, 1 mg/kg, i.v. 1 mg/kg, read-out: Brain/Plasma ratio, Mean
[2] = ICR (CD-1), brain/plasma, iv, 1 mg/kg, i.v. 1 mg/kg, read-out: Brain/Plasma ratio, individual animal
[3] = ICR (CD-1), plasma, iv, 1 mg/kg, i.v. 1 mg/kg, mouse plasma, read-out: Conc. in plasma, Mean
[4] = ICR (CD-1), plasma, iv, 1 mg/kg, i.v. 1 mg/kg, mouse plasma, read-out: Conc. in plasma, individual animal
[5] = plasma, iv, i.v. 1 mg/kg, ICR (CD-1) mice
[6] = plasma, po, p.o. 10 mg/kg, ICR (CD-1) mice

## CC(=O)Nc1ccc(-c2cnc3cc(Cl)ccc3n2)cc1 [CA77.1, N-(4-(6-chloroquinoxalin-2-yl)phenyl)acetamide]
ICR (CD-1), brain, iv, 1 mg/kg, i.v. 1 mg/kg, mouse brain, read-out: Conc. in brain, Mean
  concentration at 24 h: 0 ng/g
ICR (CD-1), brain, iv, 1 mg/kg, i.v. 1 mg/kg, mouse brain, read-out: Conc. in brain, individual animal
  concentration at 24 h: 0 ng/g
[1]
  Kp at 0.083 h: 5.64
  Kp at 0.25 h: 6.19
  Kp at 1 h: 7.52
  Kp at 8 h: 2.23
  Kp at 24 h: 0
[2]
  Kp at 0.083 h: 5.81
  Kp at 0.25 h: 6.54
  Kp at 1 h: 5.44
  Kp at 8 h: 1.79
  Kp at 24 h: 0
ICR (CD-1), brain/plasma, iv, 1 mg/kg, i.v. 1 mg/kg, 0.50 h, read-out: Brain/Plasma ratio, Mean
  Kp at 0.5 h: 3.92
ICR (CD-1), brain/plasma, iv, 1 mg/kg, i.v. 1 mg/kg, 2.00 h, read-out: Brain/Plasma ratio, Mean
  Kp at 2 h: 6.22
ICR (CD-1), brain/plasma, iv, 1 mg/kg, i.v. 1 mg/kg, 4.00 h, read-out: Brain/Plasma ratio, Mean
  Kp at 4 h: 4
[3]
  concentration at 0.083 h: 190 ng/mL
  concentration at 0.25 h: 129 ng/mL
  concentration at 1 h: 91 ng/mL
  concentration at 8 h: 2 ng/mL
  concentration at 24 h: 1 ng/mL
[4]
  concentration at 0.083 h: 177 ng/mL
  concentration at 0.25 h: 132 ng/mL
  concentration at 1 h: 110 ng/mL
  concentration at 8 h: 2.74 ng/mL
  concentration at 24 h: 0.556 ng/mL
ICR (CD-1), plasma, iv, 1 mg/kg, i.v. 1 mg/kg, mouse plasma, 0.50 h, read-out: Conc. in plasma, Mean
  concentration at 0.5 h: 276 ng/mL
ICR (CD-1), plasma, iv, 1 mg/kg, i.v. 1 mg/kg, mouse plasma, 2.00 h, read-out: Conc. in plasma, Mean
  concentration at 2 h: 46 ng/mL
ICR (CD-1), plasma, iv, 1 mg/kg, i.v. 1 mg/kg, mouse plasma, 4.00 h, read-out: Conc. in plasma, Mean
  concentration at 4 h: 6 ng/mL
[5]
  AUC(0-t): 314 ng·h/mL
  half-life: 1.39 h
  AUC(0-inf): 315 ng·h/mL
  MRT inf: 2 h
plasma, oral, p.o. 10 mg/kg vs i.v. 1 mg/kg, ICR (CD-1) mice
  bioavailability: 46.4%
[6]
  AUC(0-t): 1460 ng·h/mL
  half-life: 2.78 h
  AUC(0-inf): 1460 ng·h/mL
  MRT inf: 3 h
plasma, po, p.o. 10 mg/kg, ICR (CD-1) mice, read-out: Cmax
  Cmax: 464 ng/mL
plasma, po, p.o. 10 mg/kg, ICR (CD-1) mice, read-out: Tmax
  Tmax: 1 h
